The compounds below were run against PAR4 (Homo sapiens (Human), UniProt Q96RI0) (assay: FLIPR assay in PAR4-expressing HEK293 cells (PAR4 antagonist activity)). Conditions: inhibition of H-Ala-Phe(4-F)-Pro-Gly-Trp-Leu-Val-Lys-Asn-Gly-NH2-induced intracellular calcium mobilization.
Type: cell-based
Description: The FLIPR assay is an exemplary in vitro assay for measuring the activity of the PAR4 antagonists of the present invention. In this assay, intracellular calcium mobilization is induced in PAR4 expressing cells by a PAR4 agonist and calcium mobilization is monitored. See, e.g., Example A.
HEK293 cells stably expressing PAR4 were generated by a standard method of transfection of human PAR4 (F2R23) cDNA expression vector and selected based on PAR4 protein expression or mRNA expression. […] These cells also express endogenous PAR1 and can elicit calcium signal upon stimulation with PAR1 agonist peptide. Therefore, the same cells were also used to determine selectivity against PAR1 and agonist activity for both receptors. Cells from HEK293 PAR4 Clone 1.2A (BMS Arctic ID 383940) were propagated and used for calcium mobilization studies.
FLIPR-based calcium mobilization assay in HEK293 cells was used to measure PAR4 antagonism, agonism, and selectivity against PAR1. The activity of the PAR4 antagonists of the present invention were tested in PAR4 expressing cells by monitoring H-Ala-Phe(4-F)-[…]NH2-induced intracellular calcium mobilization. Counter screens for agonist activity and PAR1 antagonist activity were also performed. Briefly, PAR1/PAR4-expressing HEK293 cells were grown in DMEM (Life Technology, Grand Island, N.Y.) containing 10% heat-inactivated FBS, 1% Penicillin-Streptomycin, 10 μg/mL blasticidin, and 100 μg/mL Zeocin at 37° C. with 5% CO2. Cells were plated overnight prior to the experiment in a black 384-well Purecoat Amine clear bottom plate (Becton Dickinson Biosciences, San Jose, Calif.) at 10,000 cells/well in 30 μL growth medium and incubated in a humidified chamber at 37° C. with 5% CO2 overnight. Prior to compound addition, the cell medium was replaced with […] of 1× calcium and magnesium-containing Hank's Balanced Saline Solution (HBSS) (with 20 mM HEPES) and 1:1000 diluted fluorescent calcium indicator (Codex Biosolutions, Gaithersburg, Md.). After a 30 minute incubation period at 37° C. and a further 30 minute incubation and equilibration period at room temperature, 20 μL test compound (diluted in 1× HBSS buffer) was added at various concentrations at 0.17% dimethyl sulfoxide (DMSO) final concentration. Changes in fluorescence intensity were measured using a Functional Drug Screening System (FDSS, Hamamatsu, Japan) to determine agonist activities. The cells were then incubated for 30 minutes at room temperature followed by addition of 20 μL of agonist peptide for antagonist activity measurement. […] Compound potency was derived from 11-point concentration-response curves.
The following Table sets out results obtained employing various compounds of the invention tested in the FLIPR assay. As indicated above, the FLIPR assay, an in vitro assay, measures the PAR4 antagonist activity of compounds tested as described in Example A.

Sequence of PAR4 (Q96RI0 18-385): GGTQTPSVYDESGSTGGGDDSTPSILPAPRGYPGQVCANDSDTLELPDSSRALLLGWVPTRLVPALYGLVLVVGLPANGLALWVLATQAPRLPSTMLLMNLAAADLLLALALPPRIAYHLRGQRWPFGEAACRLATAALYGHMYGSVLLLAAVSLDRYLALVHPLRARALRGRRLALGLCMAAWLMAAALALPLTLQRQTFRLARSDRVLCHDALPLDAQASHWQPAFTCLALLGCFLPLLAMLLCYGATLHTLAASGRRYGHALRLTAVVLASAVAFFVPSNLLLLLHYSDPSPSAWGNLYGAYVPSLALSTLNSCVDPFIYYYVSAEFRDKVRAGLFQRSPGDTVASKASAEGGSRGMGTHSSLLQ

Compared with COc1cc(OCc2cccc(NC(=O)c3ccccn3)c2)c2cc(-c3cn4nc(OC)sc4n3)oc2c1 [Example 139], COc1cc(OCc2cccc(NC(=O)c3ccccc3)c2)c2cc(-c3cn4nc(OC)sc4n3)oc2c1 [Example 1, N-(3-(((6-methoxy-2-(2-methoxyimidazo[2,1-b][1,3,4]thiadiazol-6-yl)benzofuran-4-yl)oxy)methyl)phenyl)benzamide] is 2.5-fold lower in EC50: 2.7 nM for the first, 1.1 nM for the second.

Going from COc1cc(OCc2cccc(NC(=O)c3cc(F)cc(F)c3)c2)c2cc(-c3cn4nc(OC)sc4n3)oc2c1 [Example 159] to COc1cc(OCc2cccc(NC(=O)c3c(F)cccc3F)c2)c2cc(-c3cn4nc(OC)sc4n3)oc2c1 [Example 143], the EC50 rises from 1.6 nM to 5.9 nM (3.7-fold). The first is the more potent here.

COc1cc(OCc2cccc(NC(=O)c3cc(C(F)(F)F)ccc3F)c2)c2cc(-c3cn4nc(OC)sc4n3)oc2c1 [Example 140] and COc1cc(OCc2cccc(NC(=O)c3ccc(C(F)(F)F)c(F)c3)c2)c2cc(-c3cn4nc(OC)sc4n3)oc2c1 [Example 161] are the same in EC50: 1.5 nM for the first, 1.5 nM for the second.

Compared with COc1cc(OCc2cccc3c2CCN3C(=O)c2ccc(OC)nc2)c2cc(-c3cn4nc(OC)sc4n3)oc2c1 [Example 127], COc1cc(OCc2cccc3c2CCN3C(=O)c2ccccc2OC)c2cc(-c3cn4nc(OC)sc4n3)oc2c1 [Example 124] is 66-fold higher in EC50: 2.9 nM for the first, 190 nM for the second.

COc1cc(OCc2cccc(NC(=O)c3ccccc3OC(C)=O)c2)c2cc(-c3cn4nc(OC)sc4n3)oc2c1 [Example 8] and COc1cc(OCc2cccc(NC(=O)c3ccccc3OC)c2)c2cc(-c3cn4nc(OC)sc4n3)oc2c1 [Example 29] are within 1.5-fold of each other in EC50: 1.6 nM for the first, 1.1 nM for the second.

Going from COc1cc(OCc2ccc3c(c2)N(C(=O)c2cccc(F)c2)CC3)c2cc(-c3cn4nc(OC)sc4n3)oc2c1 [Example 102] to COc1cc(OCc2ccc3c(c2)N(C(=O)c2ccccc2F)CC3)c2cc(-c3cn4nc(OC)sc4n3)oc2c1 [Example 104], the EC50 falls from 4.1 nM to 2.2 nM (1.9-fold). The second is the more potent here.

First: COc1cc(OCc2cccc(NC(=O)c3cccc(OC(F)(F)F)c3)c2)c2cc(-c3cn4nc(OC)sc4n3)oc2c1 [Example 6, N-(3-(((6-methoxy-2-(2-methoxyimidazo[2,1-b][1,3,4]thiadiazol-6-yl)benzofuran-4-yl)oxy)methyl)phenyl)-3-(trifluoromethoxy)benzamide]
Second: COc1cc(OCc2cccc(NC(=O)c3ccc(C)c(F)c3)c2)c2cc(-c3cn4nc(OC)sc4n3)oc2c1 [Example 163]
The EC50 of the first is 1.5-fold lower: 1.4 nM for the first, 2.1 nM for the second.

Going from COc1cc(OCc2cccc(N)c2)c2cc(-c3cn4nc(OC)sc4n3)oc2c1 [Example 4, 3-(((6-Methoxy-2-(2-methoxyimidazo[2,1-b][1,3,4]thiadiazol-6-yl)benzofuran-4-yl)oxy)methyl)aniline] to COc1cc(OCc2cccc(N(C)C(C)=O)c2)c2cc(-c3cn4nc(OC)sc4n3)oc2c1 [Example 94], the EC50 falls from 17 nM to 3.8 nM (4.5-fold).

First: COc1cc(OCc2cccc3c2CCN3C(=O)c2csc(-c3ccccc3)n2)c2cc(-c3cn4nc(OC)sc4n3)oc2c1 [Example 119]
Second: COc1cc(OCc2cccc3c2CCN3C(=O)c2ccccc2)c2cc(-c3cn4nc(OC)sc4n3)oc2c1 [Example 115, (4-(((6-Methoxy-2-(2-methoxyimidazo[2,1-b][1,3,4]thiadiazol-6-yl)benzofuran-4-yl)oxy)methyl)indolin-1-yl)(phenyl)methanone]
The EC50 of the first is 18-fold higher: 1700 nM for the first, 96 nM for the second.

COc1cc(OCc2cccc(NC(=O)c3csc(-c4cccc(C(F)(F)F)c4)n3)c2)c2cc(-c3cn4nc(OC)sc4n3)oc2c1 [Example 80] and COc1cc(OCc2cccc(NC(=O)c3csc(-c4ccc(F)cc4)n3)c2)c2cc(-c3cn4nc(OC)sc4n3)oc2c1 [Example 77] are within 1.5-fold of each other in EC50: 94 nM for the first, 120 nM for the second.

First: COc1cc(OCc2cccc(NC(=O)c3cc(OCc4ccccc4)cc(C(F)(F)F)c3)c2)c2cc(-c3cn4nc(OC)sc4n3)oc2c1 [Example 62]
Second: COc1cc(OCc2cccc(NC(=O)c3ccc4ccccc4c3)c2)c2cc(-c3cn4nc(OC)sc4n3)oc2c1 [Example 23]
The EC50 of the first is 32-fold higher: 57 nM for the first, 1.8 nM for the second.

COc1cc(OCc2cccc(N(C)C(=O)c3cncnc3)c2)c2cc(-c3cn4nc(OC)sc4n3)oc2c1 [Example 92] and COc1cc(OCc2cccc(N(C)C(=O)c3ccc(C)cc3)c2)c2cc(-c3cn4nc(OC)sc4n3)oc2c1 [Example 89] are the same in EC50: 3.5 nM for the first, 3.5 nM for the second.

Going from COc1cc(OCc2cccc3c2CCN3C(=O)c2csc(C(F)(F)F)n2)c2cc(-c3cn4nc(OC)sc4n3)oc2c1 [Example 118] to COc1cc(OCc2ccc3c(c2)N(C(=O)c2csc(C(F)(F)F)n2)CC3)c2cc(-c3cn4nc(OC)sc4n3)oc2c1 [Example 110], the EC50 falls from 16 nM to 0.52 nM (31-fold). The second is the more potent here.

COc1cc(OCc2cccc(NC(=O)c3ccccc3I)c2)c2cc(-c3cn4nc(OC)sc4n3)oc2c1 [Example 24] and COc1cc(OCc2cccc(NC(=O)c3cccc(Cl)c3Cl)c2)c2cc(-c3cn4nc(OC)sc4n3)oc2c1 [Example 156] are within 1.5-fold of each other in EC50: 1.4 nM for the first, 1.7 nM for the second.

COc1cc(OCc2cccc(NC(=O)c3ccc(OC)nc3)c2)c2cc(-c3cn4nc(OC)sc4n3)oc2c1 [Example 46] and COc1cc(OCc2cccc(NC(=O)c3ccc(C)cc3)c2)c2cc(-c3cn4nc(OC)sc4n3)oc2c1 [Example 32] are within 1.5-fold of each other in EC50: 1.1 nM for the first, 1.6 nM for the second.

Compared with COc1cc(Cl)cc(C(=O)Nc2cccc(COc3cc(OC)cc4oc(-c5cn6nc(OC)sc6n5)cc34)c2)c1 [Example 63], COc1cc(OC(F)F)cc(C(=O)Nc2cccc(COc3cc(OC)cc4oc(-c5cn6nc(OC)sc6n5)cc34)c2)c1 [Example 78] is 1.6-fold higher in EC50: 1.4 nM for the first, 2.3 nM for the second. The first is the more potent here.

COc1cc(OCc2cccc(NC(=O)c3ccc(F)c(F)c3F)c2)c2cc(-c3cn4nc(OC)sc4n3)oc2c1 [Example 14] and COc1cc(OCc2cccc(NC(=O)c3cc(F)ccc3C)c2)c2cc(-c3cn4nc(OC)sc4n3)oc2c1 [Example 75] are within 1.5-fold of each other in EC50: 1.4 nM for the first, 1.7 nM for the second.

COc1cc(OCc2cccc(N(C)C(=O)c3ccccc3F)c2)c2cc(-c3cn4nc(OC)sc4n3)oc2c1 [Example 88] and COc1cc(OCc2cccc3c2CCN3C(=O)c2ccccc2F)c2cc(-c3cn4nc(OC)sc4n3)oc2c1 [Example 120] are within 1.5-fold of each other in EC50: 3.3 nM for the first, 4.2 nM for the second.

Going from COc1cc(OCc2cccc(NC(=O)c3ccnc(F)c3)c2)c2cc(-c3cn4nc(OC)sc4n3)oc2c1 [Example 48] to COc1cc(OCc2cccc(NC(=O)c3ccnnc3)c2)c2cc(-c3cn4nc(OC)sc4n3)oc2c1 [Example 69], the EC50 rises from 2.7 nM to 12 nM (4.4-fold). The first is the more potent here.

Compared with COc1cc(OCc2cccc(NC(=O)c3ccc(C)nc3O)c2)c2cc(-c3cn4nc(OC)sc4n3)oc2c1 [Example 73], COc1cc(OCc2cccc(NC(=O)c3ccc(C)nc3Cl)c2)c2cc(-c3cn4nc(OC)sc4n3)oc2c1 [Example 64] is 2.6-fold lower in EC50: 3.6 nM for the first, 1.4 nM for the second.

First: COc1cc(OCc2cccc3c2CCN3C(=O)c2sc(C)nc2C)c2cc(-c3cn4nc(OC)sc4n3)oc2c1 [Example 129]
Second: COc1cc(OCc2cccc3c2CCN3C(=O)c2cncnc2)c2cc(-c3cn4nc(OC)sc4n3)oc2c1 [Example 126]
The EC50 of the first is 62-fold lower: 4.2 nM for the first, 260 nM for the second. The first is the more potent here.

Going from COc1cc(OCc2cccc3c2CCN3C(=O)c2cccc(F)c2)c2cc(-c3cn4nc(OC)sc4n3)oc2c1 [Example 121] to COc1cc(OCc2cccc(NC(=O)c3ccc(F)cc3)c2)c2cc(-c3cn4nc(OC)sc4n3)oc2c1 [Example 2, 4-Fluoro-N-(3-(((6-methoxy-2-(2-methoxyimidazo[2,1-b][1,3,4]thiadiazol-6-yl)benzofuran-4-yl)oxy)methyl)phenyl)benzamide], the EC50 falls from 140 nM to 1 nM (140-fold). The second is the more potent here.

Compared with COc1cc(OCc2ccc3c(c2)N(C(=O)c2cc(C)cc(C(F)(F)F)c2)CC3)c2cc(-c3cn4nc(OC)sc4n3)oc2c1 [Example 111], COc1cc(OCc2cccc(NC(=O)c3csc(C(F)(F)F)n3)c2)c2cc(-c3cn4nc(OC)sc4n3)oc2c1 [Example 70] is 6-fold lower in EC50: 6 nM for the first, 1 nM for the second. The second is the more potent here.

COc1cc(OCc2cccc(NC(=O)C(C)C)c2)c2cc(-c3cn4nc(OC)sc4n3)oc2c1 [Example 136] and COc1cc(OCc2cccc(NC(=O)c3cccn3C)c2)c2cc(-c3cn4nc(OC)sc4n3)oc2c1 [Example 132] are within 1.5-fold of each other in EC50: 3.9 nM for the first, 3.8 nM for the second.

COc1cc(OCc2cccc(NC(=O)c3cc(Cl)nc(Cl)c3)c2)c2cc(-c3cn4nc(OC)sc4n3)oc2c1 [Example 55] was tested, and the EC50 was 1.1 nM.

Source: patent US10214544B2, “Imidazopyridazine and imidazothiadiazole compounds” (Universite de Montreal, priority 2015, dated 2019)
